In brackets after ≈: the same amount, converted by molar mass. Activity calls are given as the source filed them. No cut-off for these calls is given here.
What was measured:
Spodoptera littoralis [1] = assay: Antifeedant activity against L6 larvae of Spodoptera littoralis in Solanum tuberosum by choice test; assay type: functional, organism-based
Rhopalosiphum padi [2] = assay: Antifeedant activity against adult of Rhopalosiphum padi in Hordeum vulgare by choice test; assay type: functional, organism-based
Myzus persicae [3] = assay: Antifeedant activity against adult of Myzus persicae (green peach aphid) in Hordeum vulgare by choice test; assay type: functional, organism-based
Hordeum vulgare = assay: Phytotoxicity against Hordeum vulgare (barley) assessed as photosynthetic efficiency in leaf; assay type: organism-based; conditions: in vivo
[4] = tested on: Leptinotarsa decemlineata; assay: Antifeedant activity against adult of Leptinotarsa decemlineata in […] by choice test; assay type: functional, organism-based
Rhopalosiphum padi [5] = assay: Antifeedant activity against adult of Rhopalosiphum padi in barley leaf assessed as ingestion time at 1 ug/cm2 after 2 hr by electronic recording; assay type: functional
Rhopalosiphum padi [6] = assay: Antifeedant activity against adult of Rhopalosiphum padi in barley leaf assessed as salivation time at 10 ug/cm2 after 2 hr by electronic recording; assay type: functional
Rhopalosiphum padi [7] = assay: Antifeedant activity against adult of Rhopalosiphum padi in barley leaf assessed as ingestion time at 2 ug/cm2 after 2 hr by electronic recording; assay type: functional
Rhopalosiphum padi [8] = assay: Antifeedant activity against adult of Rhopalosiphum padi in barley leaf assessed as salivation time at 1 ug/cm2 after 2 hr by electronic recording; assay type: functional
Rhopalosiphum padi [9] = assay: Antifeedant activity against adult of Rhopalosiphum padi in barley leaf assessed as salivation time at 2 ug/cm2 after 2 hr by electronic recording; assay type: functional
Rhopalosiphum padi [10] = assay: Antifeedant activity against adult of Rhopalosiphum padi in barley leaf assessed as ingestion time at 10 ug/cm2 after 2 hr by electronic recording; assay type: functional
Rhopalosiphum padi [11] = assay: Antifeedant activity against adult of Rhopalosiphum padi in barley leaf assessed as noningestion time at 2 ug/cm2 after 2 hr by electronic recording; assay type: functional
Rhopalosiphum padi [12] = assay: Antifeedant activity against adult of Rhopalosiphum padi in barley leaf assessed as noningestion time at 10 ug/cm2 after 2 hr by electronic recording; assay type: functional
Rhopalosiphum padi [13] = assay: Antifeedant activity against adult of Rhopalosiphum padi in barley leaf assessed as noningestion time at 1 ug/cm2 after 2 hr by electronic recording; assay type: functional
[14] = Cytotoxicity against Cricetulus griseus CHO (Chinese hamster ovary) cells after 48 hr by MTT assay; assay type: cell-based; conditions: read-out: ED50
Rhopalosiphum padi [15] = assay: Antifeedant activity against adult of Rhopalosiphum padi in Hordeum vulgare assessed as total settling at 50 ug/cm2 by choice test; assay type: functional
Myzus persicae [16] = assay: Antifeedant activity against adult of Myzus persicae (green peach aphid) in Hordeum vulgare assessed as total settling at 10 ug/cm2 by choice test; assay type: functional
Myzus persicae [17] = assay: Antifeedant activity against adult of Myzus persicae (green peach aphid) in Hordeum vulgare assessed as total settling at 50 ug/cm2 by choice test; assay type: functional
Rhopalosiphum padi [18] = assay: Antifeedant activity against adult of Rhopalosiphum padi in Hordeum vulgare assessed as total settling at 10 ug/cm2 by choice test; assay type: functional
[19] = Cytotoxicity against Spodoptera frugiperda (fall armyworm) Sf9 cells after 48 hr by MTT assay; assay type: cell-based; conditions: read-out: ED50
Rhopalosiphum padi [20] = assay: Insecticidal activity against adult of Rhopalosiphum padi in Hordeum vulgare assessed as mortality at 2 to 10 ug/cm2 by choice test; assay type: functional
Spodoptera littoralis [21] = assay: Insecticidal activity against adult of Spodoptera littoralis in Solanum tuberosum at 50 ug/cm2 by choice test; assay type: functional, organism-based
[22] = tested on: Leptinotarsa decemlineata; assay: Insecticidal activity against adult of Leptinotarsa decemlineata in […] at 2 ug/cm2 by choice test; assay type: functional, organism-based
[23] = tested on: Leptinotarsa decemlineata; assay: Insecticidal activity against adult of Leptinotarsa decemlineata assessed as mortality at 10 ug/insect treated as hemolymph injection measured up to 3 days; assay type: functional
Myzus persicae [24] = assay: Insecticidal activity against adult of Myzus persicae (green peach aphid) in Hordeum vulgare at 50 ug/cm2 by choice test; assay type: functional

Structure (SMILES) | Activity (Spodoptera littoralis [1]) | EC50 (Rhopalosiphum padi [2]) [nmol/cm2] | EC50 (Myzus persicae [3]) [nmol/cm2] | Activity (Hordeum vulgare) | EC50 [4] [nmol/cm2] | other results
CC(=O)O[C@H]1C[C@H](C(C)(Br)CCl)O[C@@]1(C)/C(Cl)=C/Br (some centres undefined) | inactive | > 100 | 50 | Non-toxic | 17.1 | –
CC(=O)O[C@H]1C[C@@H](C(C)(Br)CCl)O[C@@]1(C)/C(Cl)=C/Br (some centres undefined) | inactive | > 100 | – | Non-toxic | – | –
CC1=CCC(C(C)(Cl)CCl)OC1C(Br)Br (centres undefined) | inactive | > 100 | > 100 | Non-toxic | 8.3 | –
CC(=O)OC(C/C=C(/C)C(Cl)C(Br)Br)C(C)(Br)CCl (centres undefined) | inactive | 70 | – | Non-toxic | 70 | –
CC1=C[C@](C)(/C=C/Cl)C=CC1=O | inactive | 200 | 200 | Non-toxic | 21.2 | –
C=C1C[C@](C)(/C=C/Cl)[C@H](Cl)C[C@H]1Cl | inactive | 44.2 | 7.1 | Non-toxic | 12.9 | –
C[C@]1(/C=C/Cl)C[C@@](C)(Cl)[C@H](Cl)C[C@H]1Cl | inactive | 63 | > 100 | Non-toxic | 30.1 | –
C[C@@]1(Cl)C[C@@](C)(/C=C/Cl)[C@H](Cl)C[C@H]1Cl | inactive | 15.9 | 1 | Non-toxic | 13 | –
C[C@]1(/C=C/Cl)C[C@](Cl)(CBr)[C@@H](Br)C[C@H]1Cl | inactive | 1.2 | 1 | Non-toxic | 39.3 | Time (Rhopalosiphum padi [5]): 0.1 min; Time (Rhopalosiphum padi [6]): 0 min; Time (Rhopalosiphum padi [7]): 0 min; Time (Rhopalosiphum padi [8]): 12 min; Time (Rhopalosiphum padi [9]): 0 min; Time (Rhopalosiphum padi [10]): 0 min; Time (Rhopalosiphum padi [11]): 60 min; Time (Rhopalosiphum padi [12]): 60 min; Time (Rhopalosiphum padi [13]): 48 min
CC(C)=CCC/C(C)=C/CC/C(C)=C/CO [FARNESOL] | – | 7.9 | 67.1 | – | 107.3 | –
CC(Br)(CCl)[C@H]1C[C@H](O)[C@](C)(/C(Cl)=C/Br)O1 (some centres undefined) [FUROPLOCAMIOID A] | inactive | > 100 | – | Non-toxic | 18.9 | –
CC(Br)(CCl)[C@@H]1C[C@H](O)[C@](C)(/C(Cl)=C/Br)O1 (some centres undefined) [FUROPLOCAMIOID C] | inactive | 1.6 | 3.7 | Non-toxic | 19.1 | CC50 at 48 h [14]: 8.09 µg/mL (≈ 20.4 µM); Activity (Rhopalosiphum padi [15]): 50%; Activity (Myzus persicae [16]): 17%; Activity (Myzus persicae [17]): <50%; Activity (Rhopalosiphum padi [18]): 17%; CC50 at 48 h [19]: 0.03 µg/mL (≈ 0.0756 µM)
Cl[C@H]1[C@H](Cl)[C@@H](Cl)[C@@H](Cl)[C@H](Cl)[C@H]1Cl [LINDANE] | – | – | – | – | 0.1 | EC50 (Spodoptera littoralis [1]): 16.8 nmol/cm2; mortality (Rhopalosiphum padi [20]): >50%; CC50 at 48 h [14]: > 100 µg/mL; Activity (Spodoptera littoralis [21]): Active; Activity [22]: Active; mortality [23]: 100%; mortality at 50 µg/cm2 (Myzus persicae [24]): 100%; CC50 at 48 h [19]: 0.001 µg/mL (≈ 0.00344 µM)
C[C@]1(/C=C/Cl)C[C@@](C)(Cl)[C@H](Cl)C[C@@H]1Cl [MERTENSENE] | inactive | 16.6 | 150 | Non-toxic | 150 | Time (Rhopalosiphum padi [5]): 3 min; Time (Rhopalosiphum padi [6]): 45 min; Time (Rhopalosiphum padi [7]): 1 min; Time (Rhopalosiphum padi [8]): 40 min; Time (Rhopalosiphum padi [9]): 48 min; Time (Rhopalosiphum padi [10]): 0 min; Time (Rhopalosiphum padi [11]): 15 min; Time (Rhopalosiphum padi [12]): 15 min; Time (Rhopalosiphum padi [13]): 17 min
CC1=CCC(C(C)(C)Cl)OC1C(Br)Br (centres undefined) [PANTONEURINE AB] | inactive | > 100 | 100 | Non-toxic | 2.4 | –
C=C(C)[C@@H]1[C@H]2OC(=O)[C@@H]1[C@]1(O)C[C@H]3O[C@]34C(=O)O[C@H]2[C@]14C [PICROTOXININ] | – | > 100 | > 100 | – | 27.5 | –
CC(=C/C[C@@H](O)[C@](C)(Br)CCl)/C(Cl)=C/Br [PREFUROPLOCAMIOID] | inactive | 38.9 | 25.3 | Non-toxic | > 100 | –
Cc1ccc(C(C)C)c(O)c1 [THYMOL] | – | 23.7 | 30.9 | – | 3.6 | –
C[C@]1(/C=C/Cl)C[C@](Cl)(CBr)[C@@H](Cl)C[C@H]1Cl [VIOLACENE] | inactive | 2.5 | 5.1 | Non-toxic | 140 | Time (Rhopalosiphum padi [5]): 0.2 min; Time (Rhopalosiphum padi [6]): 0 min; CC50 at 48 h [14]: 29.8 µg/mL (≈ 84.1 µM); Activity (Rhopalosiphum padi [15]): 50%; Activity (Myzus persicae [16]): 17%; Time (Rhopalosiphum padi [7]): 0 min; Time (Rhopalosiphum padi [8]): 8 min; Time (Rhopalosiphum padi [9]): 0.5 min; Time (Rhopalosiphum padi [10]): 0 min; mortality [23]: 80%; Activity (Myzus persicae [17]): <50%; Time (Rhopalosiphum padi [11]): 59.5 min; Time (Rhopalosiphum padi [12]): 60 min; Activity (Rhopalosiphum padi [18]): 17%; CC50 at 48 h [19]: 0.023 µg/mL (≈ 0.0648 µM); Time (Rhopalosiphum padi [13]): 51.8 min
